Measured values from patent publication EP4458830A1, “TRICYCLIC COMPOUND, METHOD FOR PREPARING SAME, AND USE THEREOF” (Sichuan Kelun-Biotech Biopharmaceutical Co., Ltd., priority 2021, dated 2023).

How the values were obtained:
human TLR8 = biological target: T1, human TLR8 (Homo sapiens, UniProt Q9NR97); experiment: Agonistic activity of compounds on HEK-Blue hTLR8 cells (QUANTI-Blue reporter, OD620); assay type: cell-based; conditions: for EC50 / Emax: HEK-Blue hTLR8 cells; for EC50: 20 hours incubation; for Emax: OD620 at which the activation effect reached the maximum; for activation effect on human TLR8: summary in words
T1 construct: host or cells: HEK-Blue hTLR8 cells (HEK293-derived reporter line; that the line is stably transfected with the human TLR8 gene is own knowledge of the vendor's product)
T1 sequence (Q9NR97 27-1041): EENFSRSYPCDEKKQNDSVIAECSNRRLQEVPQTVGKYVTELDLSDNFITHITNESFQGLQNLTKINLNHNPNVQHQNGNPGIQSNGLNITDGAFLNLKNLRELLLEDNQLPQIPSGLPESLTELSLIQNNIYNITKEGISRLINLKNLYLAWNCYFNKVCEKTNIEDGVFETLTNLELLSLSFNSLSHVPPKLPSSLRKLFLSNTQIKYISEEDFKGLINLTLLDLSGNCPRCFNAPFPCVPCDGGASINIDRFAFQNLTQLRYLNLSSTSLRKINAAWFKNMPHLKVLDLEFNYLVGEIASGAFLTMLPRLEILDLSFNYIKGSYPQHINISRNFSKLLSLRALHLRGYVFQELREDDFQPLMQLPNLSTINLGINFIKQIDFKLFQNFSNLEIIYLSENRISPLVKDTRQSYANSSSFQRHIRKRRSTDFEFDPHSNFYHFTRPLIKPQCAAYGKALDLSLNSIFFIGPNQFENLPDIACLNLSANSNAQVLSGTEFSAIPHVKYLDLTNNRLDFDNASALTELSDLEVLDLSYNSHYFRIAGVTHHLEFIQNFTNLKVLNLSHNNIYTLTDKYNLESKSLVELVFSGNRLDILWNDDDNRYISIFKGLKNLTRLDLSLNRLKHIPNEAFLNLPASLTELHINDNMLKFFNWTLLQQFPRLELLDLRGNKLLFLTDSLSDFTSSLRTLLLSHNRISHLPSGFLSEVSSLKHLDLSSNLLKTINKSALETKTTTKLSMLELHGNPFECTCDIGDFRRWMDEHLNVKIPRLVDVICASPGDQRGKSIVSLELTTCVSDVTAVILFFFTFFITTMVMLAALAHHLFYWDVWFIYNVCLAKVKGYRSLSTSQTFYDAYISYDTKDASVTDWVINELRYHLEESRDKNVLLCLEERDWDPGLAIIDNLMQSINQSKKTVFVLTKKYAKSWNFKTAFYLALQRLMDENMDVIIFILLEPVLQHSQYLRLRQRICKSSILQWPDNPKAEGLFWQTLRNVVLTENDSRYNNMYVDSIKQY
Experimental: • 1. HEK-Blue hTLR8 cells (Invivogen) were cultured in DMEM medium (Hyclone) containing 10% FBS heat-inactivated fetal bovine serum (Corning). On the day of detection, the cell state was observed under a microscope, the cells were collected and resuspended, and the cell concentration was adjusted after counting, 50 µL per well, the total amount of cells was 2×10^4, and the cells were inoculated in a 96-well plate. • 2. After the cells adhered to the wall overnight, 50 µL of the test compound at different concentrations was added to the well plate, so that the final concentrations were 100 µM, 25 µM, 6.25 µM, 1.56 µM, 0.39 µM, 0.10 µM, 0.02 µM, 0.006 µM, 0 µM, or 100 µM, 33.3 µM, 11.11 µM, 3.70 µM, 1.23 µM, 0.41 µM, 0.14 µM, 0.05 µM, 0 µM, and the final concentration of DMSO was 1%. The compound was incubated with the cells in a 37°C, 5% CO2 incubator for 20 hours. • 3. After the incubation, observation was performed under microscope to determine the maximum signal well, the state of the cells with the highest and lowest concentrations of the compound, and whether the compound will crystalize at high concentration. 10 µL of cell culture supernatant was transferred to a new 96-well transparent plate, added with 90 µL of QUANTI-Blue (Invivogen) detection reagent to each well, incubated at 37°C for 3 hours, and OD620 was read with a multifunctional microplate reader (BMG LABTECH). • 4. EC50 was calculated by fitting with Graphpad Prism software log(agonist) vs. Response - Variable slope, and Emax was the OD620 at which the activation effect of the test compound reached the maximum.

human TLR7 = biological target: T2, human TLR7 (Homo sapiens, UniProt Q9NYK1); experiment: Agonistic activity of compounds on HEK-Blue hTLR7 cells (QUANTI-Blue reporter, OD620); assay type: cell-based; conditions: for EC50 / Emax: HEK-Blue hTLR7 cells; for EC50: 20 h incubation; for Emax: OD620 at which the activation effect reached the maximum; for activation effect on human TLR7: summary in words
T2 construct: host or cells: HEK-Blue hTLR7 cells (HEK293-derived reporter line; that the line is stably transfected with the human TLR7 gene is own knowledge of the vendor's product)
T2 sequence (Q9NYK1 27-1049): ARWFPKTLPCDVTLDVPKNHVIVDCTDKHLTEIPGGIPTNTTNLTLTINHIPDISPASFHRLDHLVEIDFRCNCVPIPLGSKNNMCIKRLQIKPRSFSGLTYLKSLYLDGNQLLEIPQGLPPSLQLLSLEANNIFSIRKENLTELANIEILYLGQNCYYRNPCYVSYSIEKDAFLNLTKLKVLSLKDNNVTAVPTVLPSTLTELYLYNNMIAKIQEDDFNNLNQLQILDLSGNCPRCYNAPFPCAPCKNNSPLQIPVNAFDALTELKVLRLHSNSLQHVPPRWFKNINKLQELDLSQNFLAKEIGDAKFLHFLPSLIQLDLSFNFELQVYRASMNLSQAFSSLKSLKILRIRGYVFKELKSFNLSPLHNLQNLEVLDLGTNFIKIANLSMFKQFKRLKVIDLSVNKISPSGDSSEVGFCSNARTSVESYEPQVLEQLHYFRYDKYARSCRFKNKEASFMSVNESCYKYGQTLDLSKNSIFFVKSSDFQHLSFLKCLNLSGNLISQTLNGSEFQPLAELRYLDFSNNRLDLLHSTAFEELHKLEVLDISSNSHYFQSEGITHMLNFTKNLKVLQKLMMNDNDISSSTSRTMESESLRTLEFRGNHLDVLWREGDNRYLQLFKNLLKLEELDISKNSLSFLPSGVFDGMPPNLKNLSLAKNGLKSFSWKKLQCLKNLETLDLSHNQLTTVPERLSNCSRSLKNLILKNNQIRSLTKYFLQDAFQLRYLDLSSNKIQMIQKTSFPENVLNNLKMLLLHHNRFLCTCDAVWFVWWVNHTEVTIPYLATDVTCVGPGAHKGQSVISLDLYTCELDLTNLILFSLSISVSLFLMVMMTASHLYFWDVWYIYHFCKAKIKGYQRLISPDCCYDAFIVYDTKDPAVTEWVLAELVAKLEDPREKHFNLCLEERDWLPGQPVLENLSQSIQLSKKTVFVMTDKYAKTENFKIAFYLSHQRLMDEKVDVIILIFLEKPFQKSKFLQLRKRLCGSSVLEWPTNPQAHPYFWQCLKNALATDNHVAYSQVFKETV
Experimental: • 1. HEK-Blue hTLR7 cells (Invivogen) were cultured in DMEM medium (Hyclone) containing 10% FBS heat-inactivated fetal bovine serum (Corning). On the day of detection, the cell state was observed under a microscope, the cells were collected and resuspended, and the cell concentration was adjusted after counting, 50 µL per well, the total amount of cells was 2×10^4, and the cells were inoculated in a 96-well plate. • 2. After the cells adhered to the wall overnight, 50 µL of the test compound at different concentrations was added into the well plate, so that the final concentrations were 100 µM, 33.3 µM, 11.11 µM, 3.70 µM, 1.23 µM, 0.41 µM, 0.14 µM, 0.05 µM, 0 µM, and the final concentration of DMSO was 1%. The compound was incubated with the cells in a 37°C, 5% CO2 incubator for 20 h. • 3. After the incubation, observation under microscope was performed to determine the maximum signal well, the states of the cells with the highest and lowest concentrations of the compound, and whether the compound will crystalize at high concentration. 10 µL of cell culture supernatant was taken and transferred to a new 96-well transparent plate, 90 µL of QUANTI-Blue (Invivogen) detection reagent was added to each well, and incubated at 37°C for 3 h, and OD620 was read with a multifunctional microplate reader (BMG LABTECH). • 4. EC50 was calculated by fitting with Graphpad Prism software log(agonist) vs. response - Variable slope, and Emax was the OD620 at which the activation effect of the test compound reached the maximum.

Compound	EC50 (human TLR8) [µM]	Emax (human TLR8) [OD620]	activation effect on human TLR8 (human TLR8)	EC50 (human TLR7) [nM]	Emax (human TLR7) [OD620]	activation effect on human TLR7 (human TLR7)
CCCCc1nc2c(N)nc3ccsc3c2n1CCCCN [Compound 2, 1-(4-aminobutyl)-2-butyl-1H-imidazo[4,5-d]thieno[3,2-b]pyridine-4-amine]	8.83	1.37	strong activation effect	280	1.36	strong activation effect
CCCCc1nc2c(N)nc3cc(C4CCNCC4)sc3c2n1CC1CCOCC1 [Compound 33, 2-butyl-7-(hexahydropyridin-4-yl)-1-(3,4,5,6-tetrahydro-2H-pyran-4-ylmethyl)thieno[3,2-b]imidazo[4,5-d]pyridine-4-amine]	18.9	0.67	strong activation effect	30	1.46	strong activation effect
CCCCc1nc2c(N)nc3ccsc3c2n1CC1CCN(C)CC1 [Compound 27, 2-butyl-1-[(1-methylhexahydropyridin-4-yl)methyl] thieno[3,2-b]imidazo[4,5-d]pyridine-4-amine]	11.9	0.84	strong activation effect	270	1.59	strong activation effect
CCCCc1nc2c(N)nc3cc(C)sc3c2n1CC1CCNCC1 [Compound 3, 2-butyl-7-methyl-1-(piperidin-4-ylmethyl)-1H-imidazo[4,5-d]thieno[3,2-b]pyridine-4-amine]	19.4	1.86	strong activation effect	470	1.43	strong activation effect
CCCCc1nc2c(N)nc3cc(C4CCN(C)CC4)sc3c2[nH]1 [Compound 6, 2-butyl-7-(1-methylpiperidin-4-yl)-1H-imidazo[4,5-d] thieno[3,2-b]pyridine-4-amine]	15.3	1.11	strong activation effect	440	1.08	strong activation effect
CCCCc1nc2c(N)nc3cc(C)sc3c2n1CCCCN [Compound 1, 1-(4-aminobutyl)-2-butyl-7-methyl-1H-imidazo[4,5-d]thieno[3,2-b]pyridine-4-amine]	5.83	1.43	strong activation effect	220	1.36	strong activation effect
